The test system of experiment [1] is flavin-bound GDHs of the invention. Nature of the experiment: Inhibitory effects of 1,10-phenanthroline, summary. In kind it is biochemical, Mucor. The procedure:
(§1) The inhibitory effects of 1,10-phenanthroline on the activities of these flavin-bound GDHs were examined by the following method. According to the enzyme activity assay of Example 1, the enzyme activities when 1,10-phenanthroline was added at final concentrations of 1, 5, 10, 25, and 50 mM were determined to calculate the inhibitory rates relative to 0% of the inhibitory rate when no 1,10-phenanthroline was added.

The test system of a further experiment is MpGDH. Nature of the experiment: Inhibitory effects of 1,10-phenanthroline on GDH activity. In kind it is biochemical, Mucor prainii NISL0103. The procedure:
as §1

The subject of a further experiment is McGDH. Described as above. In kind it is biochemical, Mucor circinelloides f. circinelloides NISL0117. The procedure: as §1
In a further experiment the test system is MjGDH. The experiment is described as above. In kind it is biochemical, Mucor javanicus NISL0111. The procedure: as §1

Molecules are shown by their SMILES.

Regarding `c1cnc2c(c1)ccc1cccnc12` [1,10-phenanthroline], the inhibitory effects in experiment [1] (1,10-phenanthroline 1 mM) is recorded as 2-4%; in experiment [1] (1,10-phenanthroline 5 mM), “about 10%”. Besides, the GDH inhibition rate with MpGDH (1,10-phenanthroline 1 mM) was determined as 3.72%; with MpGDH (1,10-phenanthroline 5 mM), 10.1%; in the experiment with MpGDH (1,10-phenanthroline 10 mM), 23.9%; in the experiment on MpGDH (1,10-phenanthroline 25 mM) it was 44.1%; with MpGDH (1,10-phenanthroline 50 mM), 68.6%; in the experiment on McGDH (1,10-phenanthroline 1 mM), 1.95%. Also, the GDH inhibition rate in the experiment on McGDH (1,10-phenanthroline 5 mM) is 8.23%; with McGDH (1,10-phenanthroline 10 mM), 12.8%; in the experiment on McGDH (1,10-phenanthroline 25 mM), 36.2%; in the experiment with McGDH (1,10-phenanthroline 50 mM) it was 68.5%; with MjGDH (1,10-phenanthroline 1 mM), 3.27%; in the experiment with MjGDH (1,10-phenanthroline 5 mM), 13.1%. The GDH inhibition rate was found to be 23.5% in the experiment with MjGDH (1,10-phenanthroline 10 mM), 64.7% in the experiment with MjGDH (1,10-phenanthroline 25 mM) and 88.9% with MjGDH (1,10-phenanthroline 50 mM).
